In test [1] the test system is d(TTTGCAAA) duplex (DNA, duplex) TTTGCAAA
In words: UV melting at 260 nm. To be noted: Na+ (20 mM sodium cacodylate); pH 7.3, 4 µM duplex, no spermine; ACTD concentration not stated.

Test [2] deals with 5'-biotin-labeled hairpin DNA duplex (DNA, hairpin) AAAGCTTTTGTAAAGCTTT
Description: SPR (BIAcore), ka/kd. To be noted: 50 mM NaCl; 20 mM Tris-HCl pH 7.3, no spermine. (In general: SPR reads the build-up and loss of mass on a sensor chip optically.)

*1 amine or outer side, *2 acyl side, *3 side chain or, on linkers, in order; H or OH if unused. Where a SMILES comes first, the peptide text is derived from it. Bridges are numbered along the chain shown (N, C = ends). Roman numbers before positions name the chains, in order. [ ]: non-standard residue; d: D form. Actinocin(9to1) = Cc1c2oc3c(C)ccc(C(=O)[*:1])c3nc-2c(C(=O)[*:2])c(N)c1=O; NMeV = CN[C@H](C(=O)O)C(C)C; Sar = CNCC(=O)O

Results on one compound are retold here after paper PMC3493566 (2012).

The Tm is the temperature at which the thermal transition is half complete.

With `Cc1c2oc3c(C)ccc(C(=O)N[C@@H]4C(=O)N[C@H](C(C)C)C(=O)N5CCC[C@H]5C(=O)N(C)CC(=O)N(C)[C@@H](C(C)C)C(=O)O[C@@H]4C)c3nc-2c(C(=O)N[C@@H]2C(=O)N[C@H](C(C)C)C(=O)N3CCC[C@H]3C(=O)N(C)CC(=O)N(C)[C@@H](C(C)C)C(=O)O[C@@H]2C)c(N)c1=O` (I: T[dV]P[Sar][NMeV] / II: T[dV]P[Sar][NMeV]; ester I:1-I:C, II:1-II:C; linker I:N-II:N via Actinocin(9to1)), the Tm in test [1] worked out at 6.3 °C. Besides, the Ka in test [2] is on record as 2.48 ± 0.17 × 10^6 M^-1.
